Holding throughout (assay type): cell-based, human
One assay relates to p-p53 (Ser15). Nature of the assay: Trial (G): expression of p53 / p-p53 by Western blot. The following applies: NAC with 50 μM 25, 24 hours, NTUB1. The method, then: In trial (G), expression of p53 is monitored via Western blot analysis in accordance with a journal article published by Son et al., at 2010 in Toxicol. Appl. Pharmacol., in which overproduction ROS induced p53 suppression is observed.
Referring to TABLE 7, the NTUB1 cells at a density of 8×10^5 cells/ml are prepared and assigned into 9 groups, including G1-1 to G1-5 and G2-1 to G2-4, to incubate in various medium for 24 hours, followed by harvesting in trypsinization, resuspending in PBS till at a suitable density and collecting the NTUB1 cells of each group respectively.
Next, the NTUB1 cells of each group are further diluted with equal volume of 2× sample buffer, boiled for 10 minutes twice to denature protein therein, and analyzed by SDS-PAGE. After that, proteins on SDS-PAGE datum are transferred to nitrocellulose membranes (Millipore, Billerica, Mass., USA) using a semi-dry blotter, followed by blocking with 5% (w/v) skimmed milk in TBST buffer (100 mM Tris-HCl (pH 7.5), 150 mM NaCl and 0.1% Tween-20), incubating with specific antibodies [including antibodies specific for b-acctin (NB600-501), p-p53 (Ser15) (9284) and p53 (DO1)]. at 4° C. overnight, washing with TBST buffer again and incubated with secondary antibody at room temperature. Finally, western data of each group are visualized on Fuji SuperRX film. […]
In general terms: In western blotting, separated proteins are transferred to a membrane and probed.

Assay [1] has as its system NTUB1 cells. Nature of the assay: Trial (E): cell cycle progression by flow cytometry (propidium iodide). More on the design: Sub-G1 / G1: unit not given here. The following applies: 24 hours, NTUB1. The method, then: In order to determine a relationship between the derivatives of 18β-glycyrrhetinic acid of the present invention and cell cycle arrest, trial (E) is carried out by analyzing cell cycle progression by flow cytometry. […] After that, cell cycle progression of each group is determined respectively by incubating with 50 μg/mL propidium iodide (Sigma, Co) and 50 μg/mL RNase A (Sigma, Co) in PBS at room temperature for 30 min, and analyzing by FACScan flow cytometer and Cell Quest sofeware.

In assay [2] the test system is NTUB1 cells. Nature of the assay: Trial (D): production of reactive oxygen species by flow cytometry (DCF). The conditions noted are these: 1 mM, 24 hours. The protocol: In trial (D), production of reactive oxygen species (ROS) is analyzed by flow cytometry, since the levels of ROS play an important role in apoptosis.
Referring to TABLE 4, the NTUB1 cells at a density of 8×10^5 cells/ml are prepared and assigned into 5 groups, including D1 to D5, to incubate in various medium for 24 hours. Next, 10 μM of 2,7-dichlorodihydrofluorescein diacetate (H2DCFHDA; Molecular Probes, Eugene, Oreg.) is added to the NTUB1 cells of each group 30 minutes prior than harvest, followed by collecting the NTUB1 cells of each group respectively and washing with PBS buffer. With such arrangement, the 2,7-dichlorodihydrofluorescein diacetate will penetrate into cells, interact with esterase, and degrade to 2,7-dichlorofluorescein (DCF) having green fluorescein, which can be determined by flow cytometer. In trial (D), green fluorescence of intracellular DCF in each group are analyzed immediately by FACScan flow cytometer (Becton Dickinson) at a wavelength of 525 nm.
(A flow cytometer gives signals particle by particle.)

On to `CC(=O)N[C@@H](CS)C(=O)O` [NAC, reference compound], for which the “effect on p53 phosphorylation stimulated by 25 (Western blot, FIG. 10)” value in the assay on p-p53 (Ser15) was “prevents p53 phosphorylation that stimulated by 25”. In the assay on NTUB1 cells [1] (1 mM), this molecule displayed a G1 of 44.41, an S of 29.18 and a Sub-G1 of 2.66. Further, the G2/M in the assay with NTUB1 cells [1] is given as 20.18. For the same molecule, in the assay on NTUB1 cells [2], the “ROS (%)” value is 26.1%.

Source of the values: US8686178B2, “Derivative of 18β-glycyrrhetinic acid apt to suppress cancer cells” (Kaohsiung Medical University, priority 2011, dated 2014).
